Data as given in ChEMBL document CHEMBL6109073, “Discovery of β-amino acid substituted naphthalene sulfonamide derivatives as potent Kelch-like ECH-associated protein 1-nuclear factor erythroid 2-related factor 2 (Keap1-Nrf2) protein-protein interaction inhibitors for ulcerative colitis management” (Eur J Med Chem, 2025).

Molecular target: Keap1/Nrf2 (Homo sapiens, UniProt Q14145)
Sequence (Q16236 whole entry): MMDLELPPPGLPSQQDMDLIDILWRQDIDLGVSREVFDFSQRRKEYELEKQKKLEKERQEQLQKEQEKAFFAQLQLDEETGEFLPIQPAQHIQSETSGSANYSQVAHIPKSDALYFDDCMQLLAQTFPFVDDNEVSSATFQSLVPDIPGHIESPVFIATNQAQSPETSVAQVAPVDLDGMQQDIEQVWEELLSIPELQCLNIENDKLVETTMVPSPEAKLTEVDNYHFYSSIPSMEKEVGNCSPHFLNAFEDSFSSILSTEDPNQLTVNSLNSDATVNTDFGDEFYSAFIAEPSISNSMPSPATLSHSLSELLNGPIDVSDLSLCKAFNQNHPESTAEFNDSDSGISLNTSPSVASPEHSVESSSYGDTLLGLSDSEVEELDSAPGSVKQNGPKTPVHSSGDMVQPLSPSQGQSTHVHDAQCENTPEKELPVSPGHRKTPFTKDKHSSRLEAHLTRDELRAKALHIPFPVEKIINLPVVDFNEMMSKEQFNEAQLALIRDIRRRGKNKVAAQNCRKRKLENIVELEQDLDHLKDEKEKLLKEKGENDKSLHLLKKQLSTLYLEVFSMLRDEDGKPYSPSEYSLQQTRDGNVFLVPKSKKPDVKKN
Sequence (Q14145 whole entry): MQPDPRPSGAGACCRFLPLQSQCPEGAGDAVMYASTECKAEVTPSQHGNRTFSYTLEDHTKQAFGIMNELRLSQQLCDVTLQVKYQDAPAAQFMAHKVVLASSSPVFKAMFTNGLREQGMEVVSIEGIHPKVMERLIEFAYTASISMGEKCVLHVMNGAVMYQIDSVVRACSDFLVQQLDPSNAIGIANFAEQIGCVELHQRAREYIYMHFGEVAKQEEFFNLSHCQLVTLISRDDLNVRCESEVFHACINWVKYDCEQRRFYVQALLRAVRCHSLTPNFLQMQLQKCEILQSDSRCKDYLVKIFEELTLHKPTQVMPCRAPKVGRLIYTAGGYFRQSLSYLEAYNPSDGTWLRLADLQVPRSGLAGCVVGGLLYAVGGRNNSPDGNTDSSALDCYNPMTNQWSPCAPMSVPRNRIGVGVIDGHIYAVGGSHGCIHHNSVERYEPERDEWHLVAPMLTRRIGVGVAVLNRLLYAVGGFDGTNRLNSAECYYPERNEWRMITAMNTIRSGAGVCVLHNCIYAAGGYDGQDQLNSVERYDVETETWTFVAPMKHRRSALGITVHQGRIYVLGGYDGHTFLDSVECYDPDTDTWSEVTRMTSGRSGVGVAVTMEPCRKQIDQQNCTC
Description: Inhibition of Keap1 kelch domain (322 to 609 residues) (unknown origin)/Nrf2 (unknown origin) protein-protein interaction incubated for 30 mins by fluorescence polarization assay

C[C@@H](CC(=O)O)Nc1ccc(N(CC(=O)O)S(=O)(=O)c2ccc(Cl)cc2)c2ccccc12
IC50: 10.6 µM

C[C@@H](CC(=O)O)Nc1ccc(N(CC(=O)O)S(=O)(=O)c2ccc(C(C)(C)C)cc2)c2ccccc12
IC50: 10.1 µM

C[C@@H](CC(=O)O)Nc1ccc(NS(=O)(=O)c2ccc(C(F)(F)F)cc2)c2ccccc12
IC50: 47.6 µM

Cc1ccc(S(=O)(=O)Nc2ccc(N[C@@H](C)CC(=O)O)c3ccccc23)cc1
IC50: 44 µM

C[C@@H](CC(=O)O)Nc1ccc(NS(=O)(=O)c2ccc(C(C)(C)C)cc2)c2ccccc12
IC50: > 50 µM

C[C@@H](CC(=O)O)Nc1ccc(NS(=O)(=O)c2ccc(F)cc2)c2ccccc12
IC50: > 50 µM

COc1ccc(S(=O)(=O)N(CC(=O)O)c2ccc(N[C@@H](C)CC(=O)O)c3ccccc23)cc1
IC50: 8.21 µM

C[C@@H](CC(=O)O)Nc1ccc(NS(=O)(=O)c2ccc(Cl)cc2)c2ccccc12
IC50: > 50 µM

COc1ccc(S(=O)(=O)Nc2ccc(N[C@@H](C)CC(=O)O)c3ccccc23)cc1
IC50: > 50 µM

Cc1cc(C)c(C)c(S(=O)(=O)Nc2ccc(N[C@@H](C)CC(=O)O)c3ccccc23)c1C
IC50: 6.64 µM

C[C@@H](CC(=O)O)Nc1ccc(N(CC(=O)O)S(=O)(=O)c2ccc(F)cc2)c2ccccc12
IC50: 23.7 µM

CCOc1ccc(S(=O)(=O)N(CC(=O)O)c2ccc(N[C@@H](C)CC(=O)O)c3ccccc23)cc1
IC50: 8.82 µM

Cc1ccc(S(=O)(=O)N(CC(=O)O)c2ccc(N[C@@H](C)CC(=O)O)c3ccccc23)cc1
IC50: 7.14 µM

CCOc1ccc(S(=O)(=O)Nc2ccc(N[C@@H](C)CC(=O)O)c3ccccc23)cc1
IC50: 33.4 µM

Cc1cc(C)c(C)c(S(=O)(=O)N(CC(=O)O)c2ccc(N[C@@H](C)CC(=O)O)c3ccccc23)c1C
IC50: 1.61 µM

C[C@@H](CC(=O)O)Nc1ccc(N(CC(=O)O)S(=O)(=O)c2ccc(C(F)(F)F)cc2)c2ccccc12
IC50: 16.5 µM

COc1ccc(S(=O)(=O)Nc2ccc(N[C@@H](CC(=O)O)c3ccccc3)c3ccccc23)cc1
IC50: > 50 µM

Cc1cc(C)c(S(=O)(=O)Nc2ccc(N[C@@H](C)CC(=O)O)c3ccccc23)c(C)c1
IC50: 2.28 µM

COc1ccc(S(=O)(=O)N(CC(=O)O)c2ccc(N[C@@H](CC(=O)O)c3ccccc3)c3ccccc23)cc1
IC50: 13.9 µM
